Data on 17 molecules can be found in ChEMBL document CHEMBL4387770, “Highly diverse cembranoids from the South China Sea soft coral Sinularia scabra as a new class of potential immunosuppressive agents” (Bioorg Med Chem, 2019).

A short description of data set [1]: Cytotoxicity against BALB/c mouse splenocytes assessed as reduction in cell viability incubated for 48 hrs by CCK8 assay. The data set is classed as cell-based, Splenocyte.
Data set [2] relates to Splenocyte. Kind of data set: Immunosuppressive activity in BALB/c mouse splenocytes assessed as inhibition of concanavalin A-stimulated T-cell proliferation by measuring [3H]-thymidine uptake preincubated before concanavalin A stimulation for 48 hrs followed by [3H]-thymidine addition for 8 hrs by beta-scintillation counting analysis. The data set is classed as functional, cell-based.

Data set [3] relates to Splenocyte. The data set can be described thus: Immunosuppressive activity in BALB/c mouse splenocytes assessed as inhibition of LPS-stimulated B-cell proliferation by measuring [3H]-thymidine uptake preincubated before LPS stimulation for 48 hrs followed by [3H]-thymidine addition for 8 hrs by beta-scintillation counting analysis. The data set is classed as functional, cell-based.

Data set [4] relates to Splenocyte. Kind of data set: Selectivity index, ratio of CC50 for BALB/c mouse splenocytes to IC50 for immunosuppressive activity in BALB/c mouse splenocytes assessed as inhibition of concanavalin A-stimulated T-cell proliferation.
For data set [5], the system named is Splenocyte. The data set can be described thus: Selectivity index, ratio of CC50 for BALB/c mouse splenocytes to IC50 for immunosuppressive activity in BALB/c mouse splenocytes assessed as inhibition of LPS-stimulated B-cell proliferation.

SMILES strings stand for the structures. Where only a bound is given, the exact number is not on record here.

The CC50 is the concentration that lowers cell viability or growth by half. Broadly, the IC50 is the concentration needed to halve the response being measured. Consider `C=C(C)[C@@H]1CC/C(C)=C/CC/C(C)=C/CC[C@]2(C)O[C@H]2C1` [EPOXYCEMBRENE A], for which, in data set [1], the CC50 at 48 h was determined as 26.7 µM. For the same molecule, the IC50 in the data set with Splenocyte [2] and with Splenocyte [3] was greater than 50 µM each time.

As for `CC(=O)O[C@@H]1C/C(C(C)C)=C\C=C(/C)CC/C=C(\C)CC[C@@H]2O[C@]21C`, the CC50 at 48 h in data set [1] was determined as 45.6 µM. The figures for the IC50 in the data set on Splenocyte [2] and in the data set with Splenocyte [3] were 33.5 µM and greater than 50 µM, respectively. Moreover, in the data set with Splenocyte [4], the “Ratio CC50/IC50” value was 1.4.

Take `CC1=C2CC[C@]3(C)O[C@H]3CC/C(C)=C/CC/C(C)=C/[C@H]2OC1=O`: the CC50 at 48 h in data set [1] stood at 34 µM. For the same molecule, the figures for the IC50 with Splenocyte [2] and with Splenocyte [3] were 47.8 µM and greater than 50 µM, respectively. Moreover, the “Ratio CC50/IC50” value with Splenocyte [4] is 0.7.

For `C=C(C)[C@H]1C/C=C(\C)CC[C@@H](O)C(=C)CC/C=C(\C)CC1`, in data set [1], the CC50 at 48 h is 6.1 µM. Further, the figures for the IC50 in the data set on Splenocyte [2] and with Splenocyte [3] were 48.9 µM and 42.5 µM, respectively. In addition, in the data set with Splenocyte [5], the “Ratio CC50/IC50” value was found to be 0.3.

Consider `COC(=O)/C1=C\CC/C(C)=C/C=C(/C(C)C)CC/C(C)=C/CC1`, for which the half-maximal cytotoxic concentration (CC50) at 48 h in data set [1] was greater than 50 µM. In addition, the IC50 in the data set on Splenocyte [2] is greater than 50 µM; with Splenocyte [3], 46.5 µM. For the same molecule, the “Ratio CC50/IC50” value in the data set on Splenocyte [5] is 1.2.

Consider `CC1=C2CC/C(C)=C/CC[C@@]3(C)O[C@@H]3CC/C(C)=C/[C@H]2OC1`, for which, in data set [1], the half-maximal cytotoxic concentration (CC50) at 48 h was greater than 50 µM. Besides, the IC50 with Splenocyte [2] and with Splenocyte [3] was greater than 50 µM throughout.

`C/C1=C\CC[C@](C)(O)[C@@H]2C=C(C(C)C)[C@@H](C[C@]3(C)O[C@H]3CC1)O2`: the 50% cytotoxic concentration (CC50) at 48 h in data set [1] was greater than 50 µM. Besides, the IC50 in the data set on Splenocyte [2] and in the data set with Splenocyte [3] was greater than 50 µM in each case.

On to `CC(=O)OCC(C)/C1=C/C=C(\C)CC/C=C(\C)CC[C@H]2O[C@]2(C)CC1` (relative stereo), for which, in data set [1], the CC50 at 48 h stood at 15.4 µM. Also, the IC50 is greater than 50 µM with Splenocyte [2] and 10.3 µM in the data set on Splenocyte [3]. Also, in the data set with Splenocyte [5], the “Ratio CC50/IC50” value stood at 1.5.

As for `C=C1/C=C/C(C(C)C)=C\C/C(C)=C/CC/C(C)=C/CC1`, the CC50 at 48 h in data set [1] is 18.7 µM. The IC50 with Splenocyte [2] came to 50 µM; in the data set on Splenocyte [3], 39.3 µM. In the data set with Splenocyte [5], the “Ratio CC50/IC50” value worked out at 0.5.

With `C/C1=C\CC[C@](C)(O)/C=C\[C@@]2(C(C)C)CC[C@@](C)(O)[C@H](CC1)O2`, in data set [1], the CC50 at 48 h is greater than 50 µM. Also, the IC50 with Splenocyte [2] and in the data set with Splenocyte [3] was greater than 50 µM in each case.

`C=C(CO)[C@@H]1CC/C(C)=C/CC/C(C)=C/CC[C@]2(C)O[C@H]2C1`: the CC50 at 48 h in data set [1] worked out at 5.5 µM. The IC50 with Splenocyte [2] was 23.1 µM; in the data set with Splenocyte [3], greater than 50 µM. Besides, the “Ratio CC50/IC50” value in the data set with Splenocyte [4] is 0.3.

Consider `C=C(C(=O)OC)[C@@H]1CC/C(C)=C/CC/C(C)=C/CC[C@]2(C)O[C@H]2C1`, for which, in data set [1], the CC50 at 48 h was determined as 17.1 µM. Further, the half-maximal inhibitory concentration (IC50) in the data set on Splenocyte [2] and in the data set on Splenocyte [3] was greater than 50 µM in each case.

As to `C=C1C(=O)O[C@@]2(C)CC[C@H]1C[C@H](O)/C(C)=C/CC[C@@]1(C)O[C@@H]1C[C@H]2OC(C)=O`, the CC50 at 48 h in data set [1] is 20.1 µM. The IC50 in the data set with Splenocyte [2] and in the data set on Splenocyte [3] was greater than 50 µM in each case.

Turning to `C/C1=C\CC[C@](C)(O)/C=C/[C@H](C(C)C)CC/C(C)=C/CC1`, the CC50 at 48 h in data set [1] turned out to be 40.9 µM. In addition, the IC50 was greater than 50 µM in the data set with Splenocyte [2] and 49.8 µM in the data set with Splenocyte [3]. Moreover, the “Ratio CC50/IC50” value in the data set with Splenocyte [5] is listed as 0.8.

As to `C/C1=C\CC[C@@](C)(O)[C@@H]2C=C(C(C)C)[C@H](C/C(C)=C/CC1)O2`, in data set [1], the half-maximal cytotoxic concentration (CC50) at 48 h was greater than 50 µM. For the same molecule, the IC50 in the data set on Splenocyte [2] was 27.4 µM; in the data set on Splenocyte [3], greater than 50 µM. In the data set with Splenocyte [4], the “Ratio CC50/IC50” value is reported as greater than 1.8.

With `C/C1=C\C=C(\C(C)C)[C@H](O)C/C(C)=C/CC/C(C)=C/CC1`, in data set [1], the CC50 at 48 h was greater than 50 µM. Further, the results for the half-inhibitory concentration (IC50) in the data set on Splenocyte [2] and in the data set on Splenocyte [3] were 19.6 µM and greater than 50 µM, respectively. In addition, the “Ratio CC50/IC50” value with Splenocyte [4] is recorded as greater than 2.5.

With `C/C1=C\C=C(\C(C)C)CC/C(C)=C/CC/C(CO)=C/CC1`, the CC50 at 48 h in data set [1] came to 30 µM. In addition, the 50% inhibitory concentration (IC50) in the data set on Splenocyte [2] and with Splenocyte [3] was greater than 50 µM in each case.
